Tested on: mouse counterpart genes
Assay: Mouse GeneChip (MG-U74A to MG-U74C) analysis of lung and trachea of the OVA antigen-exposed bronchial hypersensitivity model, S-Sal group versus S-OVA group
Type: in vivo
[1] = S-Sal group vs S-OVA group, chip B, 1st
[2] = S-Sal group vs S-OVA group, chip B, 2nd
[3] = S-Sal group vs S-OVA group, chip B, 3rd
[4] = S-Sal group vs S-OVA group, chip C, 1st
[5] = S-Sal group vs S-OVA group, chip C, 2nd
[6] = S-Sal group vs S-OVA group, chip C, 3rd
[7] = S-Sal vs S-OVA group, 1st, P/A: A
[8] = S-Sal vs S-OVA group, 1st, P/A: M
[9] = S-Sal vs S-OVA group, 1st, P/A: P
[10] = S-Sal vs S-OVA group, 2nd, P/A: A
[11] = S-Sal vs S-OVA group, 2nd, P/A: P

ovalbumin [OVA antigen, ovalbumin antigen used for sensitization and inhalation to induce bronchial hypersensitivity in mice]
Fold Change, SAM domain and HD domain, 1 (mouse Probe ID 109915_at) [1]: 1.2
Fold Change, Similar to dihydropyrimidine dehydrogenase, clone MGC: 37940 (mouse Probe ID 111949_at) [1]: 0.588
Fold Change, Similar to guanylate nucleotide binding protein 3, clone MGC: 6385 (mouse Probe ID 107939_at) [1]: 1.9
Fold Change, procollagen lysine, 2-oxoglutarate 5-dioxygenase 2 (mouse Probe ID 114376_at) [1]: 0.833
Fold Change, thioredoxin reductase 1 (mouse Probe ID 162642_at) [1]: 0.323
Fold Change, ESTs AI844322 (mouse Probe ID 110469_at) [2]: 0.833
Fold Change, RIKEN cDNA 2610017M01 gene (mouse Probe ID 105606_at) [2]: 0.5
Fold Change, RIKEN cDNA 2610017M01 gene (mouse Probe ID 163053_at) [2]: 0.833
Fold Change, SAM domain and HD domain, 1 (mouse Probe ID 109915_at) [2]: 0.303
Fold Change, Similar to dihydropyrimidine dehydrogenase, clone MGC: 37940 (mouse Probe ID 111949_at) [2]: 0.588
Fold Change, Similar to guanylate nucleotide binding protein 3, clone MGC: 6385 (mouse Probe ID 107939_at) [2]: 1.2
Fold Change, growth arrest and DNA-damage-inducible 45 gamma (mouse Probe ID 109336_at) [2]: 1.7
Fold Change, procollagen lysine, 2-oxoglutarate 5-dioxygenase 2 (mouse Probe ID 114376_at) [2]: 1.1
Fold Change, thioredoxin reductase 1 (mouse Probe ID 162642_at) [2]: 2.8
Fold Change, RIKEN cDNA 2610017M01 gene (mouse Probe ID 105606_at) [3]: 0.667
Fold Change, RIKEN cDNA 2610017M01 gene (mouse Probe ID 163053_at) [3]: 1.2
Fold Change, SAM domain and HD domain, 1 (mouse Probe ID 109915_at) [3]: 1.1
Fold Change, Similar to dihydropyrimidine dehydrogenase, clone MGC: 37940 (mouse Probe ID 111949_at) [3]: 0.833
Fold Change, Similar to guanylate nucleotide binding protein 3, clone MGC: 6385 (mouse Probe ID 107939_at) [3]: 0.833
Fold Change, thioredoxin reductase 1 (mouse Probe ID 162642_at) [3]: 0.588
Fold Change, RIKEN cDNA 6330404C01 gene (mouse Probe ID 166590_at) [4]: 2
Fold Change, expressed sequence AV022454 (mouse Probe ID 165678_i_at) [4]: 1.3
Fold Change, interferon-induced protein with tetratricopeptide repeats 1 (mouse Probe ID 168299_f_at) [4]: 1.3
Fold Change, small inducible cytokine subfamily B (Cys-X-Cys), member 11 (mouse Probe ID 140659_at) [4]: 3.8
Fold Change, RIKEN cDNA 6330404C01 gene (mouse Probe ID 166590_at) [5]: 1
Fold Change, expressed sequence AV022454 (mouse Probe ID 165678_i_at) [5]: 1.3
Fold Change, hydroxysteroid (17-beta) dehydrogenase 2 (mouse Probe ID 166141_i_at) [5]: 0.526
Fold Change, interferon-induced protein with tetratricopeptide repeats 1 (mouse Probe ID 168299_f_at) [5]: 1.1
Fold Change, sialyltransferase 1 (beta-galactoside alpha-2,6-sialyltransferase) (mouse Probe ID 167200_r_at) [5]: 1.6
Fold Change, small inducible cytokine subfamily B (Cys-X-Cys), member 11 (mouse Probe ID 140659_at) [5]: 2
Fold Change, expressed sequence AV022454 (mouse Probe ID 165678_i_at) [6]: 2.2
Fold Change, hydroxysteroid (17-beta) dehydrogenase 2 (mouse Probe ID 166141_i_at) [6]: 1.9
Fold Change, hydroxysteroid (17-beta) dehydrogenase 2 (mouse Probe ID 169670_at) [6]: 0.385
Fold Change, interferon-induced protein with tetratricopeptide repeats 1 (mouse Probe ID 168299_f_at) [6]: 1.2
Fold Change, small inducible cytokine subfamily B (Cys-X-Cys), member 11 (mouse Probe ID 140659_at) [6]: 1
Fold Change, DNA-damage inducible transcript 3 (mouse Probe ID 101429_at) [7]: 0.37
Fold Change, RAS guanyl releasing protein 1 (mouse Probe ID 98307_at) [7]: 0.5
Fold Change, RAS guanyl releasing protein 1 (mouse Probe ID 167498_i_at) [7]: 0.833
Fold Change, RIKEN cDNA A2301D9K23 gene (mouse Probe ID 163453_at) [7]: 1.6
Fold Change, RIKEN cDNA A2301D9K23 gene (mouse Probe ID 166475_r_at) [7]: 1.2
Fold Change, acid phosphatase 5, tartrate resistant (mouse Probe ID 162543_r_at) [7]: 4.3
Fold Change, cathepsin C (mouse Probe ID 101020_at) [7]: 1.8
Fold Change, cathepsin C (mouse Probe ID 161251_f_at) [7]: 0.667
Fold Change, cytokine inducible SH2-containing protein 1 (mouse Probe ID 92832_at) [7]: 1.6
Fold Change, dual specificity phosphatase 14 (mouse Probe ID 165144_r_at) [7]: 0.5
Fold Change, dual specificity phosphatase 14 (mouse Probe ID 171285_at) [7]: 1.7
Fold Change, fetuin beta (mouse Probe ID 108524_at) [7]: 1.2
Fold Change, keratin complex 1, acidic, gene 16 (mouse Probe ID 103589_at) [7]: 1.8
Fold Change, keratin complex 1, acidic, gene 16 (mouse Probe ID 164428_i_at) [7]: 1.5
Fold Change, nuclear factor, interleukin 3, regulated (mouse Probe ID 164758_i_at) [7]: 1.4
Fold Change, serine (or cysteine) proteinase inhibitor, clade B (ovalbumin), member 2 (mouse Probe ID 137166_r_at) [7]: 0.667
Fold Change, transmembrane 4 superfamily member 8 (mouse Probe ID 97912_at) [7]: 3.6
Fold Change, ubiquitin D (mouse Probe ID 169362_f_at) [7]: 1.2
Fold Change, neutrophil cytosolic factor 2 (mouse Probe ID 102326_at) [8]: 2
Fold Change, ubiquitin fusion degradation 1 like (mouse Probe ID 93303_at) [8]: 0.567
Fold Change, DEAD (aspartate-glutamate-alanine-aspartate) box polypeptide 5 (mouse Probe ID 93493_at) [9]: 1
Fold Change, DEAD (aspartate-glutamate-alanine-aspartate) box polypeptide 5 (mouse Probe ID 113899_at) [9]: 0.909
Fold Change, RIKEN cDNA 4933419D20 gene (mouse Probe ID 97442_at) [9]: 1.2
Fold Change, RIKEN cDNA 4933419D20 gene (mouse Probe ID 112237_at) [9]: 1.1
Fold Change, cathepsin C (mouse Probe ID 101019_at) [9]: 1.2
Fold Change, dual specificity phosphatase 14 (mouse Probe ID 162702_at) [9]: 1.2
Fold Change, expressed sequence AI463430 (mouse Probe ID 112883_at) [9]: 1
Fold Change, fatty acid binding protein 4, adipocyte (mouse Probe ID 100567_at) [9]: 0.556
Fold Change, integrin-associated protein (mouse Probe ID 103611_at) [9]: 1
Fold Change, ribosomal protein S16 (mouse Probe ID 97647_at) [9]: 1
Fold Change, ribosomal protein S16 (mouse Probe ID 169860_r_at) [9]: 33
Fold Change, serine (or cysteine) proteinase inhibitor, clade B (ovalbumin), member 2 (mouse Probe ID 92978_s_at) [9]: 2.1
Fold Change, serine (or cysteine) proteinase inhibitor, clade B (ovalbumin), member 6 (mouse Probe ID 96060_at) [9]: 1.1
Fold Change, signal transducer and activator of transcription 1 (mouse Probe ID 101465_at) [9]: 1.8
Fold Change, signal transducer and activator of transcription 1 (mouse Probe ID 114635_at) [9]: 2
Fold Change, ubiquitin D (mouse Probe ID 168938_r_at) [9]: 1.4
Fold Change, DNA-damage inducible transcript 3 (mouse Probe ID 101429_at) [10]: 0.526
Fold Change, RAS guanyl releasing protein 1 (mouse Probe ID 167498_i_at) [10]: 1.6
Fold Change, RIKEN cDNA A2301D9K23 gene (mouse Probe ID 163453_at) [10]: 1.4
Fold Change, RIKEN cDNA A2301D9K23 gene (mouse Probe ID 166475_r_at) [10]: 0.556
Fold Change, acid phosphatase 5, tartrate resistant (mouse Probe ID 162543_r_at) [10]: 6.8
Fold Change, cathepsin C (mouse Probe ID 101020_at) [10]: 0.625
Fold Change, cathepsin C (mouse Probe ID 161251_f_at) [10]: 1
Fold Change, cytokine inducible SH2-containing protein 1 (mouse Probe ID 92832_at) [10]: 1.9
Fold Change, dual specificity phosphatase 14 (mouse Probe ID 165144_r_at) [10]: 0.833
Fold Change, fetuin beta (mouse Probe ID 108524_at) [10]: 0.278
Fold Change, keratin complex 1, acidic, gene 16 (mouse Probe ID 103589_at) [10]: 1.3
Fold Change, keratin complex 1, acidic, gene 16 (mouse Probe ID 164428_i_at) [10]: 1.6
Fold Change, ribosomal protein S16 (mouse Probe ID 169860_r_at) [10]: 1.4
Fold Change, serine (or cysteine) proteinase inhibitor, clade B (ovalbumin), member 2 (mouse Probe ID 137166_r_at) [10]: 0.667
Fold Change, transmembrane 4 superfamily member 8 (mouse Probe ID 97912_at) [10]: 1
Fold Change, ubiquitin D (mouse Probe ID 92715_at) [10]: 0.455
Fold Change, ubiquitin D (mouse Probe ID 168938_r_at) [10]: 0.667
Fold Change, ubiquitin D (mouse Probe ID 169362_f_at) [10]: 1
Fold Change, ubiquitin fusion degradation 1 like (mouse Probe ID 93303_at) [10]: 0.303
Fold Change, RAS guanyl releasing protein 1 (mouse Probe ID 98307_at) (S-Sal vs S-OVA group, 2nd, P/A: M): 1.7
Fold Change, DEAD (aspartate-glutamate-alanine-aspartate) box polypeptide 5 (mouse Probe ID 93493_at) [11]: 1
Fold Change, DEAD (aspartate-glutamate-alanine-aspartate) box polypeptide 5 (mouse Probe ID 113899_at) [11]: 0.714
Fold Change, RIKEN cDNA 4933419D20 gene (mouse Probe ID 97442_at) [11]: 1
Fold Change, RIKEN cDNA 4933419D20 gene (mouse Probe ID 112237_at) [11]: 1
Fold Change, acid phosphatase 5, tartrate resistant (mouse Probe ID 98859_at) [11]: 1.4
